{"source": "patent US20030228572A1", "about": "“Method of determining the efficacy of a compound in treating microbial infection” (priority 1998, published 2003)", "key": {"[1]": {"system": "S. aureus ATCC 29213 (OSSA)", "test": "Impedance growth curves (detection time, DT) on Mueller-Hinton agar with oxacillin, BACTOMETER M-128", "assay_type": "cell-based", "conditions": "for DT (detection time): Mueller-Hinton agar", "procedure": "(§1) Mueller-Hinton agar containing different concentrations of oxacillin (0 to 128 μg) was prepared by two-fold serial dilutions, and 0.6 ml of the medium was dispensed into the module wells of […]-128 (bioMerieux Vitek, Hazelwood, Mo.). The three ATCC S. aureus strains were used to observe the effect of oxacillin concentration on the impedance curves during bacterial growth. These strains were subcultured on TSA for 18 to 24 hours (“h”) at 37° C. One single colony on TSA was inoculated into 10 ml of TSB, incubated at 37° C. for several hours, and diluted with 0.1% peptone water to a turbidity of 0.5 McFarland. An aliquot (0.1 ml) of the bacterial suspensions was inoculated into the module well containing Mueller-Hinton agar supplemented with oxacillin. The inoculated modules (each module contains 16 wells) were inserted into the incubator of BACTOMETER set at 37° C. The impedance change in each well was continuously monitored and recorded by the instrument at 6-minute (“min”) intervals for 24 h, and results were obtained graphically as impedance growth curves. DT in hours for each well was automatically determined by the instrument software when three consecutive readings of impedance change exceeded the default value in the instrument, or was manually determined by locating the inflection point (where an accelerating change of impedance was evident) on the impedance curve."}, "[2]": {"system": "S. aureus ATCC 33591 (ORSA)", "test": "Impedance growth curves (detection time, DT) on Mueller-Hinton agar with oxacillin, BACTOMETER M-128", "assay_type": "cell-based", "conditions": "for DT (detection time): Mueller-Hinton agar, without oxacillin 5.3 h", "procedure": "as §1"}, "[3]": {"system": "S. aureus ATCC 33592 (ORSA)", "test": "Impedance growth curves (detection time, DT) on Mueller-Hinton agar with oxacillin, BACTOMETER M-128", "assay_type": "cell-based", "conditions": "for DT (detection time): Mueller-Hinton agar, without oxacillin 5.3 h", "procedure": "as §1"}, "[4]": {"system": "clinical S. aureus isolates, ORSA", "test": "Oxacillin susceptibility test of clinical isolates by the impedance method", "assay_type": "cell-based", "conditions": "for DT in h on Mueller-Hinton agar With Oxacillin (2 μg/ml), mean ± standard deviation: without oxacillin 5.7 ± 0.6 h", "procedure": "(§2) Susceptibility tests of the 235 clinical isolates of S. aureus were performed in a similar way to that used for the ATCC strains, except that only one concentration (2 μg/ml) of oxacillin in Mueller-Hinton agar was used. A negative control (Mueller-Hinton agar without oxacillin) was included for each strain tested. A strain was designated as OSSA if, in the presence of the antibiotic, there was no DT obtained within an incubation period of 24 h. A strain was designated as ORSA if, in the presence of the antibiotic, the DT was not affected or the delay in DT was less than 3 h as compared to the negative control. S. aureus ATCC 29213 (OSSA) and ATCC 33592 (ORSA) were run at the same time as controls. Strains showing discrepant results were reconfirmed by the oxacillin screen agar (Becton Dickinson Microbiology Systems, Cockysville, Md.)."}, "[5]": {"system": "clinical S. aureus isolates, OSSA", "test": "Oxacillin susceptibility test of clinical isolates by the impedance method", "assay_type": "cell-based", "procedure": "as §2"}, "[6]": {"system": "blood cultures containing ORSA", "test": "Direct detection in blood cultures by the impedance method", "assay_type": "cell-based, S. aureus", "conditions": "oxacillin 2 μg/ml; 36 of 38 vials containing ORSA", "procedure": "(§3) Blood specimens were collected at the National Cheng Kung University Hospital during a period in 1996. The BACTEC NR6A and NR7A vials (containing about 30 ml of liquid media; Becton Dickinson Microbiology Systems) were normally inoculated with 3 to 5 ml of blood from the patients, inserted into a BACTEC NR660 instrument (Becton Dickinson Microbiology Systems), and incubated at 37° C. A small aliquot (0.1 to 0.2 ml) of the culture broth was drawn from the vials showing growth of gram-positive cocci (as determined by Gram stain), heated in a boiling water bath for 15 min, and tested for thermonuclease activities on slides coated with toluidine blue-DNA agar (Bennett et al., Staphylococcus aureus, pp. 161-166, In: Bacteriological Analytical Manual, 7th ed. Association of Official Analytical Chemists International, Arlington, Va., 1992). A positive thermonuclease reaction was the development of a pink halo extending at least 1 mm from the periphery of the reaction well. […] The modules were incubated at 37° C. and DTs of the wells were automatically determined by the instrument or by manual inspection of the impedance curves. A vial was designated as ORSA or OSSA positive according to the same parameters set for pure stock cultures. […]"}, "[7]": {"system": "blood cultures containing OSSA", "test": "Direct detection in blood cultures by the impedance method", "assay_type": "cell-based, S. aureus", "conditions": "oxacillin 2 μg/ml; 57 of 58 blood cultures containing OSSA; within an incubation period of 24 h", "procedure": "as §3"}, "[8]": {"conditions": "oxacillin concentration as high as 128 μg/ml"}, "[9]": {"conditions": "oxacillin concentration as high as 64 yg/ml"}}}
{"compound": "Cc1onc(-c2ccccc2)c1C(=O)N[C@@H]1C(=O)N2[C@@H]1SC(C)(C)[C@@H]2C(=O)O", "note": "[oxacillin]", "values": [{"measurement": "DT (detection time)", "setting": "[1]; oxacillin 0.063 μg per ml, without oxacillin 4.0 h", "value": 4.1, "unit": "h"}, {"measurement": "increase in DT", "setting": "[1]; oxacillin 0.063 μg/ml versus no oxacillin", "value": 0.1, "unit": "h"}, {"measurement": "DT (detection time)", "setting": "[1]; oxacillin 0.125 μg per ml, without oxacillin 4.0 h", "value": 4.1, "unit": "h"}, {"measurement": "increase in DT", "setting": "[1]; oxacillin 0.125 μg/ml versus no oxacillin", "value": 0.1, "unit": "h"}, {"measurement": "DT (detection time)", "setting": "[1]; oxacillin 0.25 μg per ml, within 16 hours", "value": "no DT"}, {"measurement": "growth", "setting": "[1]; oxacillin 0.25 μg/ml", "value": "almost completely inhibited"}, {"measurement": "DT (detection time)", "setting": "[2]; oxacillin 32 μg per ml", "value": 6.2, "unit": "h"}, {"measurement": "DT (detection time)", "setting": "[2]; oxacillin 64 μg per ml", "value": 6.8, "unit": "h"}, {"measurement": "DT (detection time)", "setting": "[2]; oxacillin 128 μg per ml", "value": 12.1, "unit": "h"}, {"measurement": "growth", "setting": "[2]; [8]", "value": "not inhibited to a large extent"}, {"measurement": "growth", "setting": "[2]; [9]", "value": "only slightly inhibited"}, {"measurement": "DT (detection time)", "setting": "[3]; oxacillin 32 μg per ml", "value": 6.3, "unit": "h"}, {"measurement": "DT (detection time)", "setting": "[3]; oxacillin 64 μg per ml", "value": 7.0, "unit": "h"}, {"measurement": "DT (detection time)", "setting": "[3]; oxacillin 128 μg per ml", "value": 9.3, "unit": "h"}, {"measurement": "growth", "setting": "[3]; [8]", "value": "not inhibited to a large extent"}, {"measurement": "growth", "setting": "[3]; [9]", "value": "only slightly inhibited"}, {"measurement": "DT in h (range) on Mueller-Hinton agar With Oxacillin (2 μg/ml)", "setting": "[4]; 141 ORSA strains, range over strains", "value": "4.7 to 9.1", "unit": "h"}, {"measurement": "DT in h on Mueller-Hinton agar With Oxacillin (2 μg/ml), mean ± standard deviation", "setting": "[4]; 141 ORSA strains", "value": "6.0 ± 0.7", "unit": "h"}, {"measurement": "DT in h on Mueller-Hinton agar With Oxacillin (2 μg/ml), mean ± standard deviation", "setting": "[4]; 141 ORSA strains, listed as Oxacillin", "value": "6.0 ± 0.7", "unit": "h"}, {"measurement": "delay in DTs compared to negative controls", "setting": "[4]; oxacillin 2 μg/ml, 141 of 149 ORSA strains (DTs equal to controls or delayed)", "value": "less than 3 h"}, {"measurement": "DT behind the negative control", "setting": "[4]; oxacillin 2 μg/ml, false-negative strain no. 127", "value": 17, "unit": "h"}, {"measurement": "DT", "setting": "[4]; oxacillin 2 μg/ml, false-negative strain no. 127, negative control DT=5.7 h", "value": 22.7, "unit": "h"}, {"measurement": "DT", "setting": "[4]; oxacillin 2 μg/ml, seven of the eight false-negative strains, within an incubation period of 24 h", "value": "no DT"}, {"measurement": "DT in h (range) on Mueller-Hinton agar With Oxacillin (2 μg/ml)", "setting": "[5]; 84 correctly identified of 86 OSSA strains, 24 h incubation", "value": "—^c (—, DT was not found within an incubation period of 24 h.)"}, {"measurement": "DT", "setting": "[5]; oxacillin 2 μg/ml, 84 of the 86 OSSA strains, within an incubation period of 24 h", "value": "no DT"}, {"measurement": "average DT", "setting": "[6]", "value": 5.5, "unit": "h"}, {"measurement": "DT", "setting": "[7]", "value": "no DTs"}]}
